This note sets out measurements from patent US20250134890A1, “ANTIMALARIAL HEXAHYDROPYRIMIDINE ANALOGUES” (UCB BIOPHARMA SRL, priority 2022, published 2025).

pIC50: −log10 of the molar value. Structures can show the parent of a compound that is named as a salt.

One assay concerns Plasmodium falciparum: 3D7 strain. Kind of assay: P. falciparum 3D7 asexual blood stage assay (SYBR green readout). The assay is classed as cell-based. The note with it: Plasmodium falciparum, 3D7, Erythrocyte, 72 h, P. falciparum 3D7 in human erythrocytes, 72 h incubation, SYBR green fluorescence. Summed up:
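3D7-infected erythrocytes (5% haematocrit, 0.5% parasitaemia) were exposed 72 h at 37 °C under 1% O2/3% CO2 to a 20-point titration (50,000-15 nM final, 0.5% DMSO). Parasite DNA was read by SYBR green fluorescence after overnight lysis. Percent inhibition was set against mefloquine and DMSO, and EC50 came from a biphasic two-site fit.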
By pIC50 is commonly meant −log10 of the IC50, conventionally taken in molar units. Consider `C[C@H]1C[C@@H](N2C(=N)N[C@](C)(c3cccc(-c4ccccc4Cl)c3Cl)CC2=O)CCO1` [Example 46, (6S)-6-[2-Chloro-3-(2-chloro-phenyl)phenyl]-2-imino-6-methyl-3-[(2S,4S)-2-methyltetrahydro-pyran-4-yl]hexahydropyrimidin-4-one trifluoroacetic acid salt], for which the pIC50 was 6.98.

Take `C[C@H]1C[C@@H](N2C(=N)N[C@](C)(c3cccc(-c4c(F)cccc4F)c3Cl)CC2=O)CCO1` [Example 47, (6S)-6-[2-Chloro-3-(2,6-difluoro-phenyl)phenyl]-2-imino-6-methyl-3-[(2S,4S)-2-methyltetrahydro-pyran-4-yl]hexahydropyrimidin-4-one trifluoroacetic acid salt]: the pIC50 was 7.36. Same read-out and setting: the value for `C[C@H]1C[C@@H](N2C(=N)N[C@](C)(c3cccc(-c4cccc(C(F)(F)F)c4)c3Cl)CC2=O)CCO1` [Example 48, (6S)-6-{2-Chloro-3-[3-(trifluoro-methyl)phenyl]phenyl}-2-imino-6-methyl-3-[(2S,4S)-2-methyl-tetrahydropyran-4-yl]hexahydro-pyrimidin-4-one trifluoroacetic acid salt] was 7.18; that for `C[C@H]1C[C@@H](N2C(=N)N[C@](C)(c3cccc(-c4cccnc4)c3Cl)CC2=O)CCO1` [Example 49, (6S)-6-[2-Chloro-3-(pyridin-3-yl)-phenyl]-2-imino-6-methyl-3-[(2S,4S)-2-methyltetrahydropyran-4-yl]hexahydropyrimidin-4-one trifluoroacetic acid salt] was 7.52. Same read-out and setting: as for `C[C@H]1C[C@@H](N2C(=N)N[C@](C)(c3cccc(-c4cccc(F)c4F)c3Cl)CC2=O)CCO1` [Example 50, (6S)-6-[2-Chloro-3-(2,3-difluoro-phenyl)phenyl]-2-imino-6-methyl-3-[(2S,4S)-2-methyltetrahydro-pyran-4-yl]hexahydropyrimidin-4-one trifluoroacetic acid salt], the figure is 7.08; as for `C[C@H]1C[C@@H](N2C(=N)N[C@](C)(c3cccc(-c4ccc(F)cc4F)c3Cl)CC2=O)CCO1` [Example 51, (6S)-6-[2-Chloro-3-(2,4-difluoro-phenyl)phenyl]-2-imino-6-methyl-3-[(2S,4S)-2-methyltetrahydro-pyran-4-yl]hexahydropyrimidin-4-one trifluoroacetic acid salt], 7.02; as for `Cc1cc(-c2cccc([C@]3(C)CC(=O)N([C@H]4CCO[C@@H](C)C4)C(=N)N3)c2Cl)n(C)n1` [Example 52, (6S)-6-[2-Chloro-3-(2,5-dimethyl-pyrazol-3-yl)phenyl]-2-imino-6-methyl-3-[(2S,4S)-2-methyl-tetrahydropyran-4-yl]hexahydro-pyrimidin-4-one trifluoroacetic acid salt], 6.36. Still for that read-out and setting: as for `C[C@H]1C[C@@H](N2C(=N)N[C@](C)(c3cccc(-c4cccc(-c5ccn[nH]5)c4)c3Cl)CC2=O)CCO1` [Example 53, (6S)-6-{2-Chloro-3-[3-(1H-pyrazol-5-yl)phenyl]phenyl}-2-imino-6-methyl-3-[(2S,4S)-2-methyl-tetrahydropyran-4-yl]hexahydro-pyrimidin-4-one trifluoroacetic acid salt], the figure is 7.60; as for `C[C@H]1C[C@@H](N2C(=N)N[C@](C)(c3cccc(-c4cnoc4)c3Cl)CC2=O)CCO1` [Example 54, (6S)-6-[2-Chloro-3-(isoxazol-4-yl)-phenyl]-2-imino-6-methyl-3-[(2S,4S)-2-methyltetrahydropyran-4-yl]hexahydropyrimidin-4-one trifluoroacetic acid salt], 7.38; as for `C[C@H]1C[C@@H](N2C(=N)N[C@](C)(c3cccc(-c4ccc(Cl)nc4)c3Cl)CC2=O)CCO1` [Example 55, (6S)-6-[2-Chloro-3-(6-chloro-pyridin-3-yl)phenyl]-2-imino-6-methyl-3-[(2S,4S)-2-methyl-tetrahydropyran-4-yl]hexahydro-pyrimidin-4-one trifluoroacetic acid salt], 7.96. Regarding `C[C@H]1C[C@@H](N2C(=N)N[C@](C)(c3cccc(-c4cccc5cnn(C)c45)c3Cl)CC2=O)CCO1` [Example 56, (6S)-6-[2-Chloro-3-(1-methyl-indazol-7-yl)phenyl]-2-imino-6-methyl-3-[(2S,4S)-2-methyl-tetrahydropyran-4-yl]hexahydro-pyrimidin-4-one trifluoroacetic acid salt], the pIC50 was 7.37.

Compound `C[C@H]1C[C@@H](N2C(=N)N[C@](C)(c3cccc(-c4ccncc4Cl)c3Cl)CC2=O)CCO1` [Example 57, (6S)-6-[2-Chloro-3-(3-chloro-pyridin-4-yl)phenyl]-2-imino-6-methyl-3-[(2S,4S)-2-methyl-tetrahydropyran-4-yl]hexahydro-pyrimidin-4-one trifluoroacetic acid salt] had a pIC50 of 7.21. Same read-out and setting: the value for `COc1cncc(-c2cccc([C@]3(C)CC(=O)N([C@H]4CCO[C@@H](C)C4)C(=N)N3)c2Cl)c1` [Example 58, (6S)-6-[2-Chloro-3-(5-methoxy-pyridin-3-yl)phenyl]-2-imino-6-methyl-3-[(2S,4S)-2-methyl-tetrahydropyran-4-yl]hexahydro-pyrimidin-4-one trifluoroacetic acid salt] was 6.91; that for `COc1cc(-c2cccc([C@]3(C)CC(=O)N([C@H]4CCO[C@@H](C)C4)C(=N)N3)c2Cl)ccn1` [Example 59, (6S)-6-[2-Chloro-3-(2-methoxy-pyridin-4-yl)phenyl]-2-imino-6-methyl-3-[(2S,4S)-2-methyl-tetrahydropyran-4-yl]hexahydro-pyrimidin-4-one trifluoroacetic acid salt] was 7.21; that for `C[C@H]1C[C@@H](N2C(=N)N[C@](C)(c3cccc(-c4ccc(C#N)cc4)c3Cl)CC2=O)CCO1` [Example 60, 4-(2-Chloro-3-{(4S)-2-imino-4-methyl-1-[(2S,4S)-2-methyl-tetrahydropyran-4-yl]-6-oxo-hexahydropyrimidin-4-yl}phenyl)-benzonitrile trifluoroacetic acid salt] was 6.53. `C[C@H]1C[C@@H](N2C(=N)N[C@](C)(c3cccc(-c4cn(-c5cc(F)c(F)cc5F)nn4)c3Cl)CC2=O)CCO1` [Example 109, (6S)-6-{2-Chloro-3-[1-(2,4,5-trifluorophenyl)-1,2,3-triazol-4-yl]-phenyl}-2-imino-6-methyl-3-[(2S,4S)-2-methyltetrahydropyran-4-yl]hexahydropyrimidin-4-one hydrochloride] gave a pIC50 of 6.77. The same measure, in the same setting: the value for `C[C@H]1C[C@@H](N2C(=N)N[C@](C)(c3cccc(-c4cn(CC(F)(F)F)nn4)c3Cl)CC2=O)CCO1` [Example 110, (6S)-6-{2-Chloro-3-[1-(2,2,2-trifluoroethyl)-1,2,3-triazol-4-yl]-phenyl}-2-imino-6-methyl-3-[(2S,4S)-2-methyltetrahydropyran-4-yl]hexahydropyrimidin-4-one hydrochloride] was 7.89; that for `C[C@H]1C[C@@H](N2C(=N)N[C@](C)(c3cccc(-c4cn(-c5cccc(F)c5)nn4)c3Cl)CC2=O)CCO1` [Example 111, (6S)-6-{2-Chloro-3-[1-(3-fluoro-phenyl)-1,2,3-triazol-4-yl]phenyl}-2-imino-6-methyl-3-[(2S,4S)-2-methyltetrahydropyran-4-yl]-hexahydropyrimidin-4-one hydrochloride] was 7.18. Same read-out and setting: the value for `C[C@H]1C[C@@H](N2C(=N)N[C@](C)(c3cccc(-c4cn(CCN(C)C)nn4)c3Cl)CC2=O)CCO1` [Example 114, (6S)-6-(2-Chloro-3-{1-[2-(dimethylamino)ethyl]-1,2,3-triazol-4-yl}phenyl)-2-imino-6-methyl-3-[(2S,4S)-2-methyl-tetrahydropyran-4-yl]hexahydro-pyrimidin-4-one trifluoroacetic acid salt] was 6.03; that for `C[C@H]1C[C@@H](N2C(=N)N[C@](C)(c3cccc(-c4cn([C@@H](C)c5cccnc5)nn4)c3Cl)CC2=O)CCO1` [Example 115, (6S)-6-(2-Chloro-3-{1-[(1S)-1-(pyridin-3-yl)ethyl]-1,2,3-triazol-4-yl}phenyl)-2-imino-6-methyl-3-[(2S,4S)-2-methyltetrahydropyran-4-yl]hexahydropyrimidin-4-one trifluoroacetic acid salt] was 6.68.

Staying with this assay, now noted: Plasmodium falciparum, Erythrocyte; P. falciparum 3D7 in human erythrocytes, 72 h incubation, SYBR green fluorescence; read-out: IC50.
As to `CN1CCC(N2C(=N)N[C@](C)(c3cccc(-c4cccc(Cl)c4)c3Cl)CC2=O)CC1` [Example 90, (6S)-6-[2-Chloro-3-(3-chloro-phenyl)phenyl]-2-imino-6-methyl-3-(1-methylpiperidin-4-yl)-hexahydropyrimidin-4-one], the pIC50 was 6.91. In the case of `CN1CCC(N2C(=N)N[C@](C)(c3cccc(-c4ccc(OC(F)(F)F)cc4Cl)c3Cl)CC2=O)CC1` [Example 91, (6S)-6-{2-Chloro-3-[2-chloro-4-(trifluoromethoxy)phenyl]phenyl}-2-imino-6-methyl-3-(1-methyl-piperidin-4-yl)hexahydropyrimidin-4-one], the pIC50 is 5.19. Same read-out and setting: as for `CN1CCC(N2C(=N)N[C@](C)(c3cccc(-c4cc(Cl)ccc4Cl)c3Cl)CC2=O)CC1` [Example 92, (6S)-6-[2-Chloro-3-(2,5-dichloro-phenyl)phenyl]-2-imino-6-methyl-3-(1-methylpiperidin-4-yl)-hexahydropyrimidin-4-one], the figure is 7.30. Consider `CN1CCC(N2C(=N)N[C@](C)(c3cccc(-c4ccc(F)cc4F)c3Cl)CC2=O)CC1` [Example 93, (6S)-6-[2-Chloro-3-(2,4-difluoro-phenyl)phenyl]-2-imino-6-methyl-3-(1-methylpiperidin-4-yl)-hexahydropyrimidin-4-one], for which the pIC50 is 6.95.
